Measured values published in US8741955B2, “D-serine transporter inhibitors as pharmaceutical compositions for the treatment of central nervous system disorders” (Allergan, Inc., priority 2011, dated 2014).

Assays:
[1] = biological target: T1, asc-1 (Rattus norvegicus, UniProt P63116); experiment: sodium-independent [3H]D-serine transport into rat forebrain synaptosomes; format: biochemical; settings: inhibition of [3H]D-serine transport, rat brain synaptosomes; means of at least two determinations
T1 construct: from tissue; host or cells: rat forebrain P2 (synaptosome) fraction
T1 sequence (P63116 1-530): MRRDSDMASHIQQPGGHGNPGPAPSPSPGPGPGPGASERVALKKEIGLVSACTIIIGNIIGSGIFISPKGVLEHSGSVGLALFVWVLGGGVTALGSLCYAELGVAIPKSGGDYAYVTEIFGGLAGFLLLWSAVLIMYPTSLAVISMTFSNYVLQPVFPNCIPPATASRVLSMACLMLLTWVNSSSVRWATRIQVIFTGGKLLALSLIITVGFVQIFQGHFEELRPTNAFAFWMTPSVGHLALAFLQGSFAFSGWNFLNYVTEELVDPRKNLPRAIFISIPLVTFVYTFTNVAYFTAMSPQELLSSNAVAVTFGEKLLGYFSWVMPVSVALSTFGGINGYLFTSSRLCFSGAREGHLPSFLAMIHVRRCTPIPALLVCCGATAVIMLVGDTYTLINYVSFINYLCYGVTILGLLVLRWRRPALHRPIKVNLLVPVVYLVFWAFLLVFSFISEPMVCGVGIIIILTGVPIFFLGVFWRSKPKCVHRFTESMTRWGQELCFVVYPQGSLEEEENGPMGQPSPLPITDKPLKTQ
T1 sequence (Q794F9 1-527 partner): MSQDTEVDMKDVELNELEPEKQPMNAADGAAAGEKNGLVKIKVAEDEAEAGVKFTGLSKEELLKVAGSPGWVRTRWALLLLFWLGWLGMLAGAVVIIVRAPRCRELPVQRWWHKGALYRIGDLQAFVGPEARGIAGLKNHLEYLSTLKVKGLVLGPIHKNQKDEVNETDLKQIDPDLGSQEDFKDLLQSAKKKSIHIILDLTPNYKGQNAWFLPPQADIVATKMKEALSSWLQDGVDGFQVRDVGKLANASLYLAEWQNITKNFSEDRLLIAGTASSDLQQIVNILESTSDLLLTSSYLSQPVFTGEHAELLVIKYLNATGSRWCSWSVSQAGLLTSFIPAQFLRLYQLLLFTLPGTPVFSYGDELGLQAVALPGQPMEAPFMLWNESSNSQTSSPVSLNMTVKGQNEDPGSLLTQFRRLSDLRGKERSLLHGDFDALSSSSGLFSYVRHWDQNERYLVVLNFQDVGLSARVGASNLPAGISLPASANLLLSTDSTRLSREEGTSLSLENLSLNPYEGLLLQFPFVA
Protocol: Under the assay conditions used, the sodium-independent transport of D-serine by rodent forebrain synaptosomes is mediated by asc-1 (Rutter et al., 2007), and the sodium-dependent transport of D-serine into astrocytes in culture is mediated by an ASCT transporter, ASCT2 according to the literature (Ribeiro et al., 2002).
Synaptosome assays: a P2 fraction of rat forebrain was prepared and assayed immediately. Aliquots of the P2 preparation (approx. 1 mg of original tissue weight) were incubated in sodium-free assay buffer (CholineCl: 128 mM, KCl: 3.5 mM; KH2PO4: 1.5 mM; MgCl2: 1 mM; CaCl2: 1 mM; glucose: 10 mM; Tris-acetate buffer: 10 mM, pH7.4) containing [^3H]D-serine (final concentration of 50 nM) and test compounds in duplicate for 4 mins at room temperature. The synaptosomes containing radiolabel were collected by filtration onto Whatman GF/C filters, and washed twice with ice cold assay buffer. Filters were solubilized in scintillation fluid and radioactivity determined in a beta counter. IC50 values were determined as described for the cell-based assays above.

[2] = system: rat hippocampal astrocytes; experiment: [3H]L-serine transport into astrocytes; format: cell-based
Protocol: Cell-based assays: the transport of [^3H]L- or D-serine was measured in primary cultures of rat hippocampal astrocytes or in human embryonic kidney (HEK) cells expressing ASCT transporter sub-types. For the astrocyte assays, cells were plated on either 24- or 96-well plates at a density of 50,000 cells per well. For the HEK assays, cells were plated on coated 96-well plates at a density of 80,000 cells/well. Assays were conducted in duplicate at room temperature in assay buffer consisting of: NaCl: 150 mM, KCl: 2 mM; MgCl2: 1 mM; CaCl2: 1 mM; HEPES: Tris buffer: 10 mM, pH7.4. To assess the sodium-dependence of transport, NaCl was replaced in the assay buffer by equimolar choline chloride. Following aspiration of growth medium and 2 washes with assay buffer, cells were incubated with [^3H]L- or D-serine at a final concentration of 1 μM for 5 min (astrocytes) or 1 min (HEK cells), after which the incubation medium was aspirated and the cells washed twice with ice-cold assay buffer. Cells containing radiolabel were solubilized in 100 μl of 1% Triton-X100 and an aliquot counted in a beta counter. IC50 values were determined over a range of at least 6 concentrations and derived from curve-fitting algorithms available in GraphPad Prism 4.

[3] = system: pre-pulse inhibition; experiment: pre-pulse inhibition (PPI) and startle response; format: in vivo, rat; settings: D-serine 600 mg/kg, L-4OHPG 15 mg/kg; for effect on the absolute startle response: control experiment
Protocol: Pre-pulse inhibition was measured using the SR-Lab Startle Response system fitted with a rat enclosure. During the acclimation period, each rat (n=8/group) was habituated with a 5 min interval of 65-dB background noise followed by six 120 dB startle pulses alone, each 40 ms long. This acclimation phase was followed by a 15 min PPI test session where rats were presented with 120 dB startle pulses without a pre-pulse (“pulse alone”) or pulses preceded by a 20 ms pre-pulse of 3, 6, or 12 dB above background noise (“PP3”, “PP6”, or “PP12”, respectively) and ended with five 120 dB startle pulses. PPI was recorded for pre-pulse intensities of 3, 6, and 12 dB, and no stimulus. Each pre-pulse trial was administered in pseudorandom order. The 120 dB pulse alone trials were randomly interspersed within the pre-pulse trials and used for comparison with pre-pulse trials. PPI data were calculated as a percentage of PPI by comparing the pulse-alone versus the PP trials using the formula [100−(response to pre-pulse+120 dB)/(response to 120 dB alone)×100]. Experimenter was masked to treatment during testing and analysis.
Data were analyzed with a 2-way ANOVA with Condition and Treatment as factors with post hoc Bonferroni comparisons.

[4] = system: schizophrenic patients; settings: added on to traditional antipsychotic drugs; Labrie and Roder, 2010; cited from earlier work

IC50 [1] | SMILES | inhibition of [3H]L-serine transport in astrocytes [2] | effect on the absolute startle response [3] | efficacy in clinical trials of schizophrenic patients [4] | effect on PPI ([3]; PP3, PP6, PP12)
9.4 µM | N[C@H](CO)C(=O)O [D-serine] | completely inhibited | neither L-4OHPG nor D-serine had any significant effect | has shown efficacy | 
101 µM | N[C@H](C(=O)O)c1ccc(O)cc1 [L-4-hydroxyphenylglycine] |  | neither L-4OHPG nor D-serine had any significant effect |  | reduced PPI, an effect that reached significance at the PP12 intensity level
